Results as given in patent publication US20200383985A1, “Inhibitors of Protease Activated Receptor-2” (Endosome Therapeutics, Inc., priority 2017, published 2020).
Where two headings read alike, the source gives them in different places.

Legend:
[1] = system: cytosolic and nuclear ERK; experiment: FRET assays of cytosolic and nuclear ERK in HEK293 cells; type: cell-based; conditions: for trypsin activation of cytosolic and nuclear ERK: I-343 10 μM, SCH530348 100 nM, PS2 30 μM
Description: Trypsin-induced ERK signaling mediated by endosomal PAR2 signaling was investigated in HEK293 cells expressing Flag-PAR2-HA11 and FRET biosensors for cytosolic and nuclear ERK (CytoEKAR, NucEKAR), plasma membrane and cytosolic PKC (pmCKAR, CytoCKAR), and plasma membrane and cytosolic cAMP (pmEpac, CytoEpac). […] I-343 (10 μM) but not SCH530348 (100 nM) inhibited trypsin activation of cytosolic and nuclear ERK (FIG. 5G). PS2 and DynK44E inhibited trypsin-stimulated activation of cytosolic and nuclear ERK when compared to PS2 inact and DynWT controls (FIG. 5H, 5I, 17G-J). AG1478 (1 μM), an inhibitor of EGF receptor tyrosine kinase (Levitzki, A. & Gazit, A. Science 1995, 267(5205): 1782-1788), UBO-QIC (100 nM), which inhibits Gαq and certain Gβγ signals ([…]), and G66983 (1 μM), which inhibits all isoforms of PKC (Gschwendt, M, et al., FEBS Lett 1996, 392(2): 77-80), suppressed trypsin-stimulated activation of cytosolic ERK (FIGS. 5J and 17K).
HEK293 cells were cultured in DMEM supplemented with 10% (v/v) FBS (5% CO2, 37° C.). When necessary serum restriction was achieved by replacing culture medium with DMEM containing 0.5% FBS overnight. Cells were transiently transfected using polyethylenimine (PEI) (1:6 DNA:PEI).
HEK293 cells were transiently transfected in 10 cm dishes (˜50% confluency) with Flag-PAR2-HA (2.5 μg) and FRET biosensors CytoEKAR or NucEKAR (2.5 μg) (Jensen, D. D. et al., Sci Transl Med. 2017, 9(392), eaal3447; Thomsen, A. R. B., et al., Cell 2016, 166(4): 907-919). In experiments examining the role of dynamin, cells were transfected with FLAG-PAR2-HA (1.25 μg), FRET biosensor (1.25 μg) and either DynWT-HA, DynK44E-HA or pcDNA3.1 (2.5 μg). At 24 h after transfection, cells were seeded on ViewPlate-96 well plates (PerkinElmer). FRET was assessed 72 h post-transfection, following overnight serum restriction. Cells were equilibrated in HBSS-HEPES (30 min, 37° C.). FRET was measured using a PHERAstar FSX Microplate Reader (BMG LabTech). For CFP/YFP emission ratio analysis, cells were sequentially excited using a CFP filter (425/10 nm) with emission measured using YFP (550/50 nm) and CFP (490/20 nm) filters. FRET was measured before and after stimulation with trypsin (10 nM), NE (100 nM), CS (100 nM), phorbol 12,13-dibutyrate, PDBu (positive control, 1 μM), or vehicle. FRET ratios (donor/acceptor intensity for EKAR, or acceptor/donor intensity for CKAR and Epac) were calculated and corrected to baseline and vehicle treatments to determine ligand-induced FRET (ΔFRET). Treatment effects were determined by comparison of area under the curve values. Signalling inhibitors were dissolved in HBSS-HEPES. PS2 and PS2 inact were dissolved in HBSS-HEPES+1% DMSO. Cells were incubated with UBO-QIC (100 nM), AG1478 (1 μM), G66983 (1 μM), PS2 or PS2 inact (30 μM) or vehicle (30 min preincubation, inclusion throughout).

PAR2-RLuc8 = target: T1, PAR2-RLuc8 (Homo sapiens, UniProt P55085); experiment: BRET assays of PAR2 endocytosis in HEK293 cells; type: cell-based; conditions: for EC50: HEK293 cells
T1 construct: expressed in transfected cells; host or cells: HEK293, transient transfection with PEI
T1 sequence (P55085 26-397): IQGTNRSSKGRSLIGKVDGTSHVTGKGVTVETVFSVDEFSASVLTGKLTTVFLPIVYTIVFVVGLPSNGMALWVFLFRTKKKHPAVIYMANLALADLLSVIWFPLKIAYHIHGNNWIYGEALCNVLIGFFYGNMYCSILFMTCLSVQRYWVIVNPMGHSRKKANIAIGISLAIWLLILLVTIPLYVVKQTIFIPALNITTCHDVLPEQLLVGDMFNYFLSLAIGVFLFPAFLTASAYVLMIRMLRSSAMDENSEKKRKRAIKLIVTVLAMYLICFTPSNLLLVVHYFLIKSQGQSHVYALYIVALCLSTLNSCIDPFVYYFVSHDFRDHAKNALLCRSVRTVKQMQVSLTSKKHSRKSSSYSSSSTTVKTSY

Cc1nc(C(=O)N2CCN(C(=O)c3cn4nc(-c5ccc(F)cc5)cc(C(C)(C)C)c4n3)C(C)(C)C2)n[nH]1 [Compound I-343, (8-(tert-butyl)-6-(4-fluorophenyl)imidazo[1,2-b]pyridazin-2-yl)(2,2-dimethyl-4-(5-methyl-1H-1,2,4-triazole-3-carbonyl)piperazin-1-yl)methanone]
trypsin activation of cytosolic and nuclear ERK [1]: inhibited

O=C1NC(=NS(=O)(=O)c2cccc3ccccc23)S/C1=C\c1ccc(Br)cc1 [PS2]
trypsin-induced decrease in PAR2-RLuc8/RIT-Venus BRET and increase in PAR2-RLuc8/Rab5a-Venus BRET (PAR2-RLuc8; PS2 or PS2 inact): suppressed | trypsin activation of cytosolic and nuclear ERK [1]: inhibited

NE: protease (elastase) activating PAR2 by biased mechanisms
PAR2-RLuc8/RIT-Venus or Rab5a-Venus BRET (PAR2-RLuc8; 100 nM): Neither NE nor CS (100 nM) affected

trypsin
EC50 (PAR2-RLuc8; read-out: EC50, decrease in PAR2-RLuc8/RIT-Venus BRET): 2.9 nM | EC50 (PAR2-RLuc8; read-out: EC50, increase in PAR2-RLuc8/Rab5a-Venus BRET): 2.7 nM | PAR2-RLuc8/Rab5a-Venus BRET after 60 min (PAR2-RLuc8; compared to HC supernatant, trypsin 10 nM positive control): increased | EC50 ([1]; HEK293 cells, read-out: EC50, activation of ERK in the cytosol and nucleus): 5 nM | activation of ERK in the cytosol and nucleus ([1]; trypsin 10 nM, NE or CS 100 nM): stimulated a rapid and persistent activation
